Among the data in the OligoGym collection are remaining target (mRNA or protein) (fraction of control) values, retold here.

Targets include PRKAR2A; CHEK2; RHOG; RIPK2.
What all share (details): ASO

These antisense oligonucleotides have a phosphorothioate backbone; sugars and methylation of C are not fully specified.
Further: test concentration or dose not given here.

In turn, CTGACACCTCTAGTGATTTA returned a remaining target (mRNA or protein) (fraction of control) in the data set with PRKAR2A of at least 1.

CTGGATGTGGCTCATGCCGG came in with a remaining target (mRNA or protein) (fraction of control) with PRKAR2A of 0.52.

CTTGGGACTGGGTAACGCTG: the remaining target (mRNA or protein) (fraction of control) with CHEK2 stood at 0.93.

The sequence GAACACTTCCTTGACACC showed a remaining target (mRNA or protein) (fraction of control) with RHOG of 0.69.

Take GAAGCCACGGGTGTCTTAAG: the remaining target (mRNA or protein) (fraction of control) with CHEK2 came to 0.86.

In turn, GACCTGGTGCCCCTCCCG showed a remaining target (mRNA or protein) (fraction of control) with RHOG of 0.65.

In turn, GACGGCGTTTTCCTTTCCCT displayed a remaining target (mRNA or protein) (fraction of control) with CHEK2 of 0.49.

Take GACTTCAGGAATGAAGTTGT: the remaining target (mRNA or protein) (fraction of control) with CHEK2 was at least 1.

On to GAGAGACATGCCGTTTTGAA, for which the remaining target (mRNA or protein) (fraction of control) with PRKAR2A came to 0.51.

With GAGAGCTGGGTCTGCCTCTC, the remaining target (mRNA or protein) (fraction of control) with CHEK2 amounted to 0.73.

With GAGGGCAGAGGTTAGAGA, the remaining target (mRNA or protein) (fraction of control) with RHOG turned out to be 0.79.

In the data set with RHOG, GCAGCCTCCAAGCCAAGT gave a remaining target (mRNA or protein) (fraction of control) of 0.58.

On to GCAGCGGGCAATCTCGACCT, for which the remaining target (mRNA or protein) (fraction of control) in the data set with PRKAR2A came out at 0.5.

The sequence GCATCGTGGGTGCAGTTG showed a remaining target (mRNA or protein) (fraction of control) with RHOG of 0.53.

GCATGTTTATACTTTGGACT gave a remaining target (mRNA or protein) (fraction of control) in the data set with PRKAR2A of 0.83.

Sequence GCGCAACCCTACGCTACCAC had a remaining target (mRNA or protein) (fraction of control) with PRKAR2A of 0.53.

In the data set with RHOG, GCGCGCTGTAATTGTCGA registered a remaining target (mRNA or protein) (fraction of control) of 0.64.

GCGGCCACTGTCTCCGCGCT yielded a remaining target (mRNA or protein) (fraction of control) with PRKAR2A of 0.67.

As for GCTGTTCCTCATAGTGTGAG, the remaining target (mRNA or protein) (fraction of control) with PRKAR2A is at least 1.

As to GGATCTGGATGTGGCTCATG, in the data set with PRKAR2A, the remaining target (mRNA or protein) (fraction of control) stood at 0.71.

In the data set with PRKAR2A, GGATGTGGCTCATGCCGGCG yielded a remaining target (mRNA or protein) (fraction of control) of 0.94.

Take GGCAGTGCCTCCTCTCTC: the remaining target (mRNA or protein) (fraction of control) with RHOG stood at 0.65.

In the data set with PRKAR2A, GGCTCATGCCGGCGGCGGCC came in with a remaining target (mRNA or protein) (fraction of control) of 0.62.

Regarding GGGTCCAACCTTGGCTTG, the remaining target (mRNA or protein) (fraction of control) with RHOG was determined as 0.42.

In turn, GGGTGTCAGGCTGGGCTC showed a remaining target (mRNA or protein) (fraction of control) in the data set with RHOG of 0.85.

The sequence GGGTGTTGTACATCAGAGCT had a remaining target (mRNA or protein) (fraction of control) with PRKAR2A of 0.87.

The sequence GGTTCACTGTGCGCCCGT returned a remaining target (mRNA or protein) (fraction of control) with RHOG of 0.84.

The sequence GTACTGCACAGCCAAGAGCA came in with a remaining target (mRNA or protein) (fraction of control) with CHEK2 of 0.79.

In the data set with CHEK2, GTAGAGCTGTGGATTCATTT gave a remaining target (mRNA or protein) (fraction of control) of 0.67.

Turning to GTAGCGCACAGCGTGGAT, in the data set with RHOG, the remaining target (mRNA or protein) (fraction of control) was determined as 0.65.

Regarding GTCAGCAAATGCGTAAGG, the remaining target (mRNA or protein) (fraction of control) with RHOG is 0.76.

GTGGCTCATGCCGGCGGCGG came in with a remaining target (mRNA or protein) (fraction of control) with PRKAR2A of at least 1.

With TAATCTTTATAAGACAGTCC, the remaining target (mRNA or protein) (fraction of control) with CHEK2 came to 0.88.

TAATGAATGGGCCTTCAGAA had a remaining target (mRNA or protein) (fraction of control) with PRKAR2A of at least 1.

Turning to TACTAAAATGTCATAAGTTC, the remaining target (mRNA or protein) (fraction of control) with PRKAR2A is at least 1.

In the data set with CHEK2, TATTCATCTCTTAATGCCTT yielded a remaining target (mRNA or protein) (fraction of control) of 0.61.

TATTCCATAATTAAATCCAA yielded a remaining target (mRNA or protein) (fraction of control) with CHEK2 of at least 1.

The sequence TCAGCAGTGGTTCATCAAAG returned a remaining target (mRNA or protein) (fraction of control) with CHEK2 of 0.63.

As to TCAGTGACACTTGAGTCCTA, in the data set with CHEK2, the remaining target (mRNA or protein) (fraction of control) is 0.87.

The sequence TCCACAGCACGGTTATACCC gave a remaining target (mRNA or protein) (fraction of control) in the data set with CHEK2 of 0.28.

TCCTTTTGCTGATGATCTTT yielded a remaining target (mRNA or protein) (fraction of control) with CHEK2 of 0.57.

In turn, TGAGATGACAGTAAAACATT had a remaining target (mRNA or protein) (fraction of control) in the data set with CHEK2 of at least 1.

In the data set with PRKAR2A, TGAGTGATTATGCGTTCTCC yielded a remaining target (mRNA or protein) (fraction of control) of 0.8.

In the case of TGCAGCAGCTCCGTGAGCCC, the remaining target (mRNA or protein) (fraction of control) with PRKAR2A was determined as 0.57.

In turn, TGCCGGCGGCGGCCGAAGGG showed a remaining target (mRNA or protein) (fraction of control) in the data set with PRKAR2A of at least 1.

TGTGGCTGACCAGAAGGTTT returned a remaining target (mRNA or protein) (fraction of control) with PRKAR2A of 0.53.

With TGTTCAAACCACGGAGTTCA, in the data set with CHEK2, the remaining target (mRNA or protein) (fraction of control) amounted to 0.62.

TTATCTGCAAAGGATTGGTG displayed a remaining target (mRNA or protein) (fraction of control) with RIPK2 of 0.45.

In the case of TTCATGGTCCCGGGCGCTCA, the remaining target (mRNA or protein) (fraction of control) with RIPK2 worked out at 0.53.

With TTCTAAAAGTCACCCGGTCC, the remaining target (mRNA or protein) (fraction of control) with PRKAR2A was 0.39.

The sequence TTCTCTGAGACTTCTGCCCA gave a remaining target (mRNA or protein) (fraction of control) with CHEK2 of 0.49.

With TTGAACCTCTGCCCATCCTT, the remaining target (mRNA or protein) (fraction of control) with PRKAR2A amounted to 0.39.

TTTAGTCCTGCTTCTAATCA showed a remaining target (mRNA or protein) (fraction of control) in the data set with PRKAR2A of 0.73.

In the data set with CHEK2, TTTATTCCCCACCACTTTGT showed a remaining target (mRNA or protein) (fraction of control) of 0.38.

Turning to TTTCCTATGTAGGAGTTCAT, the remaining target (mRNA or protein) (fraction of control) with RIPK2 is at least 1.

In the data set with CHEK2, TTTGTGGTCTCGGCACCCTC registered a remaining target (mRNA or protein) (fraction of control) of 0.77.

As to TTTGTTGGTGACCAGGGCAA, the remaining target (mRNA or protein) (fraction of control) in the data set with PRKAR2A was found to be 0.6.

Consider TTTTAATCTTGATGATGCAA, for which, in the data set with CHEK2, the remaining target (mRNA or protein) (fraction of control) stood at 0.71.
